Columns and labels:
PDGFRα = molecular target: T1, PDGFRα (Homo sapiens, UniProt P16234); experiment: HTRF biochemical assay, PDGFRα; details: Table 4, read-out: PDFGRα Biochemical IC50 avg
T1 construct: purchased Millipore 14-467 (lot 26321_ACTI)
Description: (§1) Exemplary compounds were tested for ability to inhibit the phosphorylation of a peptide substrate by the tyrosine kinase wt KIT, PDGFRα, or CSF-1R. Assay procedures and results are described below.
(§2) Enzyme, substrate, and cofactors (ATP and Mn^2+) are combined in a well of a microtiter plate and incubated for 3 hours at 25° C. At the end of the incubation, the reaction is quenched by the addition of an EDTA-containing buffer.
(§3) The substrate used in the CSF-1R and PDGFRα assay is FAM-[…]-CONH2 (FAM is carboxyfluorescein). Peptide should be >95% purity. The substrate for the KIT assay is FAM-[…]-NH2.
(§4) • 1. To a well of a 384-wellplate add 5 μL of 2× enzyme buffer (or control). • 2. Add 100 nL of 100× compound. Enzyme and compound may be pre-incubated at this time if desired. • 3. Add 5 μL of 2× substrate buffer. • 4. Incubate plate at 25° C. for 3 hours. • 5. Add 10 uL of anti-phosphotyrosine antibody buffer. • 6. Read plate in BioTek Synergy Reader. Reaction Conditions for wtKIT Assay

CSF-1R = molecular target: T2, CSF-1R (Homo sapiens, UniProt P07333); experiment: HTRF biochemical assay, CSF-1R; details: Table 4
T2 construct: purchased Invitrogen PV3249 (lot 662393N)
Description: as §1, §2, §3, §4

wtKIT = molecular target: T3, wtKIT (Homo sapiens, UniProt P10721); experiment: HTRF biochemical assay, wtKIT (phosphorylation of a peptide substrate); details: Table 4
T3 construct: 1888289AM in the reaction mixtures
Summary of the method: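 HTRF read-out of FAM-peptide (1 µM) phosphorylation after anti-phosphotyrosine antibody addition and EDTA quench. Reaction: 5.0 nM wtKIT, 400 µM ATP, 10 mM Mn2+, HEPES pH 7.5, 1% DMSO, 3 h, 25 °C; optional enzyme-compound preincubation; enzyme level set for 10-20% conversion.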

[1] = molecular target: T4, KIT-NanoLuc fusion in HEK293 cells (Homo sapiens, UniProt P10721); experiment: NanoBRET cellular target engagement assay, KIT; format: cell-based
T4 construct: expressed in transfected cells; host or cells: HEK293, transient transfection
Description: Exemplary compounds were tested for their ability to inhibit target engagement of KIT or CSF-1R kinases through competitive displacement of a Nano-Luc luciferase kinase fusion in HEK293 cells.
The NanoBRET target engagement assay employs an energy transfer technique designed to measure molecular proximity in living cells. The assay measures the apparent affinity of test compounds by competitive displacement of the NanoBRET tracer, reversibly bound to a NanoLuc luciferase-kinase fusion construct in cells. The intracellular binding affinity and selectivity are physiologically relevant and fundamental to the pharmacological mechanism of the compounds. While biochemical and biophysical assays identify the kinase inhibitors in vitro, the NanoBRET target engagement assay serves to determine the direct interaction of the compounds binding to target kinases in cells.
HEK293 cells transiently expressing NanoLuc-DDR1 fusion vector were seeded into 384-well plates and treated with the Tracer K-4 and compound for 1 hour. The BRET signal was measured on an EnVision 2104 multilabel microplate reader. NanoBRET Target Engagement Assay in HEK293 cells transiently transfected with KIT and CSF1R-NanoLuc Fusion Vector. HEK293 cells were transfected with […] KIT or CSF1R-NanoLuc Fusion Vector and […] carrier DNA. The transfected cells were treated with test compounds (starting at 10 μM, 10-dose with 3-fold dilution) and reference compound (desatinib) (starting at 1 μM, 10-dose with 3-fold dilution). Percent inhibition due to compound activity was calculated to determine IC50.

Kinetic solubility assay = format: physicochemical; details: kinetic solubility, 50 mM PB (pH 7.4), shaken 24 hours at RT
Summary of the method: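 Concentration in the filtrate was determined by UPLC-UV or HPLC-UV with a standard curve. Before that, compound (10 mM DMSO stock) in 50 mM PB at pH 7.4 was agitated 24 h at room temperature, then PTFE-filtered with centrifugation.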

[2] = test system: KIT phosphorylation in M-07e cells; experiment: Cell-based KIT phosphorylation in M-07e cells by pKIT ELISA; set-up: species or system human; details: SCF stimulation
Summary of the method: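 Serum-starved M-07e cells (1 × 10^6/mL, overnight) were treated with compounds (8-point 3-fold series from 1 uM) for 2 h at 37 °C, then stimulated with 100 ng/mL SCF for 5 min. Lysate phospho-KIT was captured on anti-phospho-CD117 plates, detected with anti-pY-HRP, and read at 450 nm against a pc-KIT standard curve.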

T1 sequence (P16234 24-1089): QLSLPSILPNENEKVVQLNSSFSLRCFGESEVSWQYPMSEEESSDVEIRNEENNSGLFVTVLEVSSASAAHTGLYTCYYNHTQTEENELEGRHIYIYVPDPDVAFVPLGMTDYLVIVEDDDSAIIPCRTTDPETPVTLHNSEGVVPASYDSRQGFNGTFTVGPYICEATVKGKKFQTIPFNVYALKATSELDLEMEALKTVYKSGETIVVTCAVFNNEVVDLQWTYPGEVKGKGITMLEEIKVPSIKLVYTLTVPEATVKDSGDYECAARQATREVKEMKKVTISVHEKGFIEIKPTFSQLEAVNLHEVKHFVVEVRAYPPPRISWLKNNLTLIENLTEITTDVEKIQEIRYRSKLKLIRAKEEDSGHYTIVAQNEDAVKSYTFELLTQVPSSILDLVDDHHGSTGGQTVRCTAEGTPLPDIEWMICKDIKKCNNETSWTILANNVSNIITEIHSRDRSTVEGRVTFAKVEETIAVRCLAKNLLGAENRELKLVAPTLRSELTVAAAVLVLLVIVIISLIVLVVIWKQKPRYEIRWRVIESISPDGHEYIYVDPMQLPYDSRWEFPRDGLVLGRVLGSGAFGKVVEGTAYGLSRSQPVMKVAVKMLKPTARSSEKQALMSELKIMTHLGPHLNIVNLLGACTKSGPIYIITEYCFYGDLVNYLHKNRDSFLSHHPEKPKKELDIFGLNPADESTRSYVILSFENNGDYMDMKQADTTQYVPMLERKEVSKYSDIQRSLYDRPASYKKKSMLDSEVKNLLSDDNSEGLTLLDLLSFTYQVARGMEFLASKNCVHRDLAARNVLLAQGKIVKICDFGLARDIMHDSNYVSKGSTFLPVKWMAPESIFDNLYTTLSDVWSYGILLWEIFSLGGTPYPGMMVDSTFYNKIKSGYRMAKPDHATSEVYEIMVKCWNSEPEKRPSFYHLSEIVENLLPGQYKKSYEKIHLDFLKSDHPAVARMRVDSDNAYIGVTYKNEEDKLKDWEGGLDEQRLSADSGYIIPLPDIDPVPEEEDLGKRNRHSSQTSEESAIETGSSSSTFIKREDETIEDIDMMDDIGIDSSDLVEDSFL
T4 sequence (P10721 26-976): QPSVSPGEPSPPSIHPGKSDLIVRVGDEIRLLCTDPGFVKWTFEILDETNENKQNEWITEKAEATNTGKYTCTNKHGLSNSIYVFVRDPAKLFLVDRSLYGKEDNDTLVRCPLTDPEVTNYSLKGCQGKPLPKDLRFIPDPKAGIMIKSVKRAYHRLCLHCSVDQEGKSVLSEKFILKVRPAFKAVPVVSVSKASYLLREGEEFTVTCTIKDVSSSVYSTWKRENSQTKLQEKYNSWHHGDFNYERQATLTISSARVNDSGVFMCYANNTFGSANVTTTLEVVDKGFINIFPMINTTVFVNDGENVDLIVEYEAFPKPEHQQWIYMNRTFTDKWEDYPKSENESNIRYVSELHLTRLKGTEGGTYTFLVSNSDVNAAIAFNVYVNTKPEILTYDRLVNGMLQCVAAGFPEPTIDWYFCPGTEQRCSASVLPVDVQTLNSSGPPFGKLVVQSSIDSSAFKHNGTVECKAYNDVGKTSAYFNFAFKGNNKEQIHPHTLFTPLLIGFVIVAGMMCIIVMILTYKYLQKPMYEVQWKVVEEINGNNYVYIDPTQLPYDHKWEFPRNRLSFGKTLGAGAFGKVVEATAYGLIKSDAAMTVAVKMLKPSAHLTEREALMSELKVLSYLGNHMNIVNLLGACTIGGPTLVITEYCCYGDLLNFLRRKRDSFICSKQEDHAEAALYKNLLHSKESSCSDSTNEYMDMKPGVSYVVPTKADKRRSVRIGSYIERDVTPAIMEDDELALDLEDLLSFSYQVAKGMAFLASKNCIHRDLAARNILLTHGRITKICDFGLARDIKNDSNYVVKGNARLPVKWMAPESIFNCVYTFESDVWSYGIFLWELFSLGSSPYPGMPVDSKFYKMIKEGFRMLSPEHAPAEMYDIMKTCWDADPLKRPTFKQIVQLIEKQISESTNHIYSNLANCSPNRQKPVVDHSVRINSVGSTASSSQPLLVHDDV
T3 sequence (P10721 26-976): as above
T2 sequence (P07333 20-972): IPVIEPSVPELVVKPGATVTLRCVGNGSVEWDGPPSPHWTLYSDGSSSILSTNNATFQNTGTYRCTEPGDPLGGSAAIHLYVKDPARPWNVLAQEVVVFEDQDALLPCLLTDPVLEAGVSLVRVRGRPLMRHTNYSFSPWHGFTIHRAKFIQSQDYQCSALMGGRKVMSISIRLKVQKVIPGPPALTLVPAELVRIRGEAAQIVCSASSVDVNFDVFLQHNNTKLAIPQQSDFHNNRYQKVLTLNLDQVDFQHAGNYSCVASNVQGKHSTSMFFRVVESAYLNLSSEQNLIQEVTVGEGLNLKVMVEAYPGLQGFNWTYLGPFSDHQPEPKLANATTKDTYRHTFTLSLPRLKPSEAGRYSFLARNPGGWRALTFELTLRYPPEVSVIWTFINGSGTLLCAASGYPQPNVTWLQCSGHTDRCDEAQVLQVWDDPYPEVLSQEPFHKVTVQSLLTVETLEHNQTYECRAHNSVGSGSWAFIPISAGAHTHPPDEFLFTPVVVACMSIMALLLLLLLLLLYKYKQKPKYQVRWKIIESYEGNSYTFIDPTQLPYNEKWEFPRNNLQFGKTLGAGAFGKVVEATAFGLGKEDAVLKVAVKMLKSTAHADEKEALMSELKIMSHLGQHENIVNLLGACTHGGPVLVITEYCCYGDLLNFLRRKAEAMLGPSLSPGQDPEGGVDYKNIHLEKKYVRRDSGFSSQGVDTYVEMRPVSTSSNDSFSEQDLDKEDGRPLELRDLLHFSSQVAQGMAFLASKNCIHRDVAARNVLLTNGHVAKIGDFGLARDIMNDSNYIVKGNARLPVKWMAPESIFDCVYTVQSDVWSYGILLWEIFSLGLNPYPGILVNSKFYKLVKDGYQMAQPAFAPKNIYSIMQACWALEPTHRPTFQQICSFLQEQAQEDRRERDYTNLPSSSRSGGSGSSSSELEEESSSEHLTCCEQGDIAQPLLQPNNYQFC

Question: Which results are given for `Cc1nc(-c2ccc(C)c(NC(=O)c3cnc4cc(COCCO)ccn34)c2)no1` [Compound I-110]?
Answer: IC50 (PDGFRα): 0.5 to 5 µM; IC50 (CSF-1R): 0.5 to 5 µM; IC50 (wtKIT): ≤ 0.05 µM; IC50 [1]: ≤ 0.1 µM; Solubility (μM) (Kinetic solubility assay): * (a solubility greater than 50 μM); IC50 [2]: 0.05 to 0.5 µM

From patent publication US20240254119A1 (THIRD HARMONIC BIO, INC., priority 2022, published 2024)
